From paper PMC5218480 (PLoS ONE, 2017) come the findings set out here.

Structures are written as SMILES.

This assay relates to MV-4-11 cells. The assay is described as follows: Gene expression microarray analysis (Affymetrix PrimeView) and GSEA. The format is cell-based, human. More on the design: RFU PODN (11730768_x_at) / Fold change /veh PODN (11730768_x_at) / RFU LINC00158 (11744669_a_at) / Fold change /veh LINC00158 (11744669_a_at) / RFU DUSP10 (11751237_a_at) / Fold change /veh DUSP10 (11751237_a_at) / RFU ID3 (11757404_x_at) / Fold change /veh ID3 (11757404_x_at) / RFU PLEKHG5 (11737974_s_at) / Fold change /veh PLEKHG5 (11737974_s_at) / RFU LRRC4B (11730491_at) / Fold change /veh LRRC4B (11730491_at) / RFU GIMAP4 (11747438_a_at) / Fold change /veh GIMAP4 (11747438_a_at) / RFU KRT8 (11758183_x_at) / Fold change /veh KRT8 (11758183_x_at) / RFU CNN1 (11734310_a_at) / Fold change /veh CNN1 (11734310_a_at) / RFU VPS37D (11726825_at) / Fold change /veh VPS37D (11726825_at) / RFU C10orf10 (11716522_x_at) / Fold change /veh C10orf10 (11716522_x_at) / RFU KIR2DL2 /// KIR2DL4 /// KIR2DL5A /// KIR2DL5B /// KIR2DS1 /// KIR2DS2 /// KIR2DS3 /// KIR2DS4 /// KIR3DL3 /// KIR3DL3 /// KIR3DS1 (11738374_at) / Fold change /veh KIR2DL2 /// KIR2DL4 /// KIR2DL5A /// KIR2DL5B /// KIR2DS1 /// KIR2DS2 /// KIR2DS3 /// KIR2DS4 /// KIR3DL3 /// KIR3DL3 /// KIR3DS1 (11738374_at) / RFU C1QL1 (11718748_at) / Fold change /veh C1QL1 (11718748_at) / RFU TMPRSS4 (11747572_a_at) / Fold change /veh TMPRSS4 (11747572_a_at) / RFU HAMP (11756126_x_at) / Fold change /veh HAMP (11756126_x_at) / RFU RNFT2 (11725882_a_at) / Fold change /veh RNFT2 (11725882_a_at) / RFU NR4A2 (11747474_a_at) / Fold change /veh NR4A2 (11747474_a_at) / RFU ABCC12 (11746883_a_at) / Fold change /veh ABCC12 (11746883_a_at) / RFU TMEM136 (11760407_x_at) / Fold change /veh TMEM136 (11760407_x_at) / RFU CLDN22 /// WWC2 (11732394_at) / Fold change /veh CLDN22 /// WWC2 (11732394_at) / RFU HLA-DPB1 (11760878_x_at) / Fold change /veh HLA-DPB1 (11760878_x_at) / RFU SPINT1 (11716480_a_at) / Fold change /veh SPINT1 (11716480_a_at) / RFU GAP43 (11754022_s_at) / Fold change /veh GAP43 (11754022_s_at) / RFU A4GNT (11735810_at) / Fold change /veh A4GNT (11735810_at) / RFU PRB3 (11715151_x_at) / Fold change /veh PRB3 (11715151_x_at) / RFU TUBB4B (11761932_at) / Fold change /veh TUBB4B (11761932_at) / RFU CAPN14 (11732068_a_at) / Fold change /veh CAPN14 (11732068_a_at) / RFU TMCC2 (11721928_a_at) / Fold change /veh TMCC2 (11721928_a_at) / RFU IRGQ (11745062_a_at) / Fold change /veh IRGQ (11745062_a_at) / RFU FAM174B (11720279_a_at) / Fold change /veh FAM174B (11720279_a_at) / RFU TMPRSS4 (11748680_a_at) / Fold change /veh TMPRSS4 (11748680_a_at) / RFU FAM212B (11763350_a_at) / Fold change /veh FAM212B (11763350_a_at) / RFU PLEKHG5 (11743358_a_at) / Fold change /veh PLEKHG5 (11743358_a_at) / RFU ZSCAN30 (11745921_a_at) / Fold change /veh ZSCAN30 (11745921_a_at) / RFU CMKLR1 (11741424_a_at) / Fold change /veh CMKLR1 (11741424_a_at) / RFU LOC101060620 /// MAPK8IP1 (11723275_at) / Fold change /veh LOC101060620 /// MAPK8IP1 (11723275_at) / RFU SPTSSB (11747773_x_at) / Fold change /veh SPTSSB (11747773_x_at) / RFU PRSS12 (11739890_at) / Fold change /veh PRSS12 (11739890_at) / RFU BIN1 (11741810_x_at) / Fold change /veh BIN1 (11741810_x_at) / RFU WNT11 (11732464_a_at) / Fold change /veh WNT11 (11732464_a_at) / RFU C10orf10 (11716521_a_at) / Fold change /veh C10orf10 (11716521_a_at) / RFU C5orf56 (11738089_at) / Fold change /veh C5orf56 (11738089_at) / RFU CYB561 (11721691_x_at) / Fold change /veh CYB561 (11721691_x_at) / RFU ANKRD19P (11752326_a_at) / Fold change /veh ANKRD19P (11752326_a_at) / RFU OR2T12 /// OR2T33 /// OR2T8 (11738714_s_at) / Fold change /veh OR2T12 /// OR2T33 /// OR2T8 (11738714_s_at) / RFU VCAN (11748164_a_at) / Fold change /veh VCAN (11748164_a_at) / RFU JSRP1 (11732532_at) / Fold change /veh JSRP1 (11732532_at) / RFU KRTAP10-11 (11738290_x_at) / Fold change /veh KRTAP10-11 (11738290_x_at) / RFU MYO3A (11730013_a_at) / Fold change /veh MYO3A (11730013_a_at) / RFU EBF3 (11725865_a_at) / Fold change /veh EBF3 (11725865_a_at) / RFU CAMK2N1 (11719241_x_at) / Fold change /veh CAMK2N1 (11719241_x_at) / RFU C5orf56 (11738088_a_at) / Fold change /veh C5orf56 (11738088_a_at) / RFU OLFML3 (11715873_a_at) / Fold change /veh OLFML3 (11715873_a_at) / RFU LOC100653217 /// NTM (11731650_a_at) / Fold change /veh LOC100653217 /// NTM (11731650_a_at) / RFU MAPK11 (11762145_a_at) / Fold change /veh MAPK11 (11762145_a_at) / RFU FIZ1 (11724087_x_at) / Fold change /veh FIZ1 (11724087_x_at) / RFU OASL (11726364_x_at) / Fold change /veh OASL (11726364_x_at) / RFU SOX15 (11748057_x_at) / Fold change /veh SOX15 (11748057_x_at) / RFU CD79A (11719716_a_at) / Fold change /veh CD79A (11719716_a_at) / RFU HIST1H1D (11736915_at) / Fold change /veh HIST1H1D (11736915_at) / RFU CASKIN2 (11723855_a_at) / Fold change /veh CASKIN2 (11723855_a_at) / RFU LOC730098 (11760151_x_at) / Fold change /veh LOC730098 (11760151_x_at) / RFU OR4N2 (11742367_at) / Fold change /veh OR4N2 (11742367_at) / RFU PRRT2 (11749266_a_at) / Fold change /veh PRRT2 (11749266_a_at) / RFU SNX32 (11753110_a_at) / Fold change /veh SNX32 (11753110_a_at) / RFU CDHR5 (11726645_a_at) / Fold change /veh CDHR5 (11726645_a_at) / RFU RCAN1 (11760418_a_at) / Fold change /veh RCAN1 (11760418_a_at) / RFU FAM167A (11723789_a_at) / Fold change /veh FAM167A (11723789_a_at) / RFU FAM26E (11764081_at) / Fold change /veh FAM26E (11764081_at) / RFU ISYNA1 (11749810_s_at) / Fold change /veh ISYNA1 (11749810_s_at) / RFU ACY1 (11761880_at) / Fold change /veh ACY1 (11761880_at) / RFU 11764098_at / Fold change /veh 11764098_at / RFU SAMD14 (11745864_x_at) / Fold change /veh SAMD14 (11745864_x_at) / RFU NPB (11741838_a_at) / Fold change /veh NPB (11741838_a_at) / RFU TMPRSS6 (11731388_a_at) / Fold change /veh TMPRSS6 (11731388_a_at) / RFU KRTAP10-2 (11738614_at) / Fold change /veh KRTAP10-2 (11738614_at) / RFU ARHGAP8 /// PRR5-ARHGAP8 (11727945_x_at) / Fold change /veh ARHGAP8 /// PRR5-ARHGAP8 (11727945_x_at) / RFU KRTAP5-7 /// NADSYN1 (11734609_at) / Fold change /veh KRTAP5-7 /// NADSYN1 (11734609_at) / RFU RASL12 (11751679_a_at) / Fold change /veh RASL12 (11751679_a_at) / RFU CDKN2B (11736163_a_at) / Fold change /veh CDKN2B (11736163_a_at) / RFU PRF1 (11729649_at) / Fold change /veh PRF1 (11729649_at) / RFU, ZNF638 /// ZNF638-IT1 / Fold change vs veh, ZNF638 /// ZNF638-IT1 / RFU, PANK3 / Fold change vs veh, PANK3 / RFU, SH3YL1 / Fold change vs veh, SH3YL1 / RFU, ZEB2 / Fold change vs veh, ZEB2 / RFU, NRIP1 / Fold change vs veh, NRIP1 / RFU, PTTG1IP / Fold change vs veh, PTTG1IP / RFU, CAPN2 / Fold change vs veh, CAPN2 / RFU, MED14 / Fold change vs veh, MED14 / RFU, SNORA58 / Fold change vs veh, SNORA58 / RFU, C1orf63 / Fold change vs veh, C1orf63 / RFU, LRRFIP1 / Fold change vs veh, LRRFIP1 / RFU, NDUFAF7 / Fold change vs veh, NDUFAF7 / RFU, SLC12A2 / Fold change vs veh, SLC12A2 / RFU, IBTK / Fold change vs veh, IBTK / RFU, ESF1 / Fold change vs veh, ESF1 / Fold change vs veh, TMEM50B / RFU, TAOK1 / Fold change vs veh, TAOK1 / RFU, ACBD3 / Fold change vs veh, ACBD3 / RFU, TMA16 / Fold change vs veh, TMA16 / RFU, RWDD3 / Fold change vs veh, RWDD3 / RFU, BCAT1 / Fold change vs veh, BCAT1 / RFU, EDEM3 / Fold change vs veh, EDEM3 / RFU, TMEM33 / Fold change vs veh, TMEM33 / RFU, WDR75 / Fold change vs veh, WDR75 / RFU, AHCTF1 / Fold change vs veh, AHCTF1 / RFU, TFRC / Fold change vs veh, TFRC / RFU, ZDHHC17 / Fold change vs veh, ZDHHC17 / RFU, NOM1 / Fold change vs veh, NOM1 / RFU, ARL8B / Fold change vs veh, ARL8B / RFU, ZBTB11 / Fold change vs veh, ZBTB11 / RFU, TAMM41 / Fold change vs veh, TAMM41 / RFU, KIAA1704 /// LOC100996395 / Fold change vs veh, KIAA1704 /// LOC100996395 / RFU, ING1 / Fold change vs veh, ING1 / RFU, TRMT61B / Fold change vs veh, TRMT61B / RFU, FUBP3 / Fold change vs veh, FUBP3 / RFU, TP53 / Fold change vs veh, TP53 / RFU, TNKS2 / Fold change vs veh, TNKS2 / RFU, ZFP14 / Fold change vs veh, ZFP14 / RFU, ACTR2 / Fold change vs veh, ACTR2 / RFU, PPP3R1 / Fold change vs veh, PPP3R1 / RFU, PIK3R1 / Fold change vs veh, PIK3R1 / RFU, HNRNPA1 / Fold change vs veh, HNRNPA1 / RFU, RNF170 / Fold change vs veh, RNF170 / RFU, ZNF28 / Fold change vs veh, ZNF28 / RFU, RNGTT / Fold change vs veh, RNGTT / RFU, OGT / Fold change vs veh, OGT / RFU, BRD1 / Fold change vs veh, BRD1 / RFU, MARS / Fold change vs veh, MARS / RFU, ZNF655 / Fold change vs veh, ZNF655 / RFU, FAHD1 / Fold change vs veh, FAHD1 / RFU, BDP1 / Fold change vs veh, BDP1 / RFU, LRRCC1 / Fold change vs veh, LRRCC1 / RFU, ARID1A / Fold change vs veh, ARID1A / RFU, ZNF146 / Fold change vs veh, ZNF146 / RFU, ZNF330 / Fold change vs veh, ZNF330 / RFU, GPN3 / Fold change vs veh, GPN3 / RFU, C9orf123 / Fold change vs veh, C9orf123 / RFU, N4BP2L2 / Fold change vs veh, N4BP2L2 / RFU, ARFIP1 / Fold change vs veh, ARFIP1 / RFU, FAM179B / Fold change vs veh, FAM179B / RFU, BCL10 / Fold change vs veh, BCL10 / RFU, UHRF1BP1L / Fold change vs veh, UHRF1BP1L / RFU, BET1 / Fold change vs veh, BET1 / RFU, CNOT2 / Fold change vs veh, CNOT2 / RFU, ZNF268 / Fold change vs veh, ZNF268 / Fold change vs veh, ZNF507 / RFU, DGCR2 / Fold change vs veh, DGCR2 / RFU, WDSUB1 / Fold change vs veh, WDSUB1 / Fold change vs veh, HSP90B1 /// MIR3652 / RFU, ADSS / Fold change vs veh, ADSS / RFU, GK / Fold change vs veh, GK / RFU, ZNF148 / Fold change vs veh, ZNF148 / RFU, TAF9 / Fold change vs veh, TAF9 / RFU, SLC1A5 / Fold change vs veh, SLC1A5 / RFU, SLMO2 / Fold change vs veh, SLMO2 / RFU, ABCC4 / Fold change vs veh, ABCC4 / RFU, LOC101060439 /// RAP1B / Fold change vs veh, LOC101060439 /// RAP1B / RFU, RFX7 / Fold change vs veh, RFX7 / RFU, GTPBP10 / Fold change vs veh, GTPBP10 / RFU, CNEP1R1 / Fold change vs veh, CNEP1R1 / RFU, BIVM-ERCC5 /// ERCC5 / Fold change vs veh, BIVM-ERCC5 /// ERCC5 / RFU, ILF3 / Fold change vs veh, ILF3 / RFU 11762660_at / Fold change /veh 11762660_at / RFU VCAN (11757783_s_at) / Fold change /veh VCAN (11757783_s_at) / RFU DDX43 (11728927_at) / Fold change /veh DDX43 (11728927_at) / RFU KRT8 (11758188_x_at) / Fold change /veh KRT8 (11758188_x_at) / RFU NKD1 (11759106_at) / Fold change /veh NKD1 (11759106_at) / RFU SRD5A1 (11742802_a_at) / Fold change /veh SRD5A1 (11742802_a_at) / RFU TPSAB1 /// TPSB2 (11721975_s_at) / Fold change /veh TPSAB1 /// TPSB2 (11721975_s_at) / RFU GSTM3 (11746129_a_at) / Fold change /veh GSTM3 (11746129_a_at) / RFU IL23R (11737362_x_at) / Fold change /veh IL23R (11737362_x_at) / RFU TMEM51 (11727254_a_at) / Fold change /veh TMEM51 (11727254_a_at) / RFU PIWIL2 (11732686_x_at) / Fold change /veh PIWIL2 (11732686_x_at) / RFU ORM1 (11744905_x_at) / Fold change /veh ORM1 (11744905_x_at) / RFU CCDC152 (11743942_at) / Fold change /veh CCDC152 (11743942_at) / RFU ECM1 (11717891_a_at) / Fold change /veh ECM1 (11717891_a_at) / RFU IL23R (11748794_a_at) / Fold change /veh IL23R (11748794_a_at) / RFU TNFAIP8L3 (11732012_x_at) / Fold change /veh TNFAIP8L3 (11732012_x_at) / RFU MBOAT4 (11741988_at) / Fold change /veh MBOAT4 (11741988_at) / RFU 11764193_at / Fold change /veh 11764193_at / RFU TMEM53 (11763286_at) / Fold change /veh TMEM53 (11763286_at) / RFU MAGEB2 (11727129_at) / Fold change /veh MAGEB2 (11727129_at) / RFU TMEM200A (11744735_a_at) / Fold change /veh TMEM200A (11744735_a_at) / RFU CCDC152 (11751479_a_at) / Fold change /veh CCDC152 (11751479_a_at) / RFU FAM211A (11726209_a_at) / Fold change /veh FAM211A (11726209_a_at) / RFU RGS16 (11746705_a_at) / Fold change /veh RGS16 (11746705_a_at) / RFU VCAN (11755009_s_at) / Fold change /veh VCAN (11755009_s_at) / RFU RHOB (11743442_s_at) / Fold change /veh RHOB (11743442_s_at) / RFU RGS16 (11720943_a_at) / Fold change /veh RGS16 (11720943_a_at) / RFU RGS16 (11720944_at) / Fold change /veh RGS16 (11720944_at) / RFU, VPS4B / Fold change vs veh, VPS4B / RFU, CREB1 / Fold change vs veh, CREB1 / RFU, DNAJC13 / Fold change vs veh, DNAJC13 / RFU, GNAQ / Fold change vs veh, GNAQ / RFU, CDK5R1 / Fold change vs veh, CDK5R1 / RFU, ZRANB3 / Fold change vs veh, ZRANB3 / RFU, CUL4A / Fold change vs veh, CUL4A / RFU, CCNY / Fold change vs veh, CCNY / RFU, UFL1 / Fold change vs veh, UFL1 / RFU, COG3 / Fold change vs veh, COG3 / RFU, DIAPH2 / Fold change vs veh, DIAPH2 / RFU, SKA2 / Fold change vs veh, SKA2 / RFU, AFF3 / Fold change vs veh, AFF3 / RFU, LMF1 / Fold change vs veh, LMF1 / RFU, IPO11 / Fold change vs veh, IPO11 / RFU, DFFB / Fold change vs veh, DFFB / RFU, FOXP1 / Fold change vs veh, FOXP1 / RFU, CARD8 / Fold change vs veh, CARD8 / RFU, STRN3 / Fold change vs veh, STRN3 / RFU, ADK / Fold change vs veh, ADK / RFU, RASSF2 / Fold change vs veh, RASSF2 / RFU, WIPF1 / Fold change vs veh, WIPF1 / RFU, LARP1B / Fold change vs veh, LARP1B / RFU, RASA1 / Fold change vs veh, RASA1 / RFU, RB1 / Fold change vs veh, RB1 / RFU, PPFIA1 / Fold change vs veh, PPFIA1 / RFU, MAT2A / Fold change vs veh, MAT2A / RFU, CCT5 / Fold change vs veh, CCT5 / RFU, WDR92 / Fold change vs veh, WDR92 / RFU, CUX1 / Fold change vs veh, CUX1 / RFU, TTC7A / Fold change vs veh, TTC7A / RFU, TMEM135 / Fold change vs veh, TMEM135 / RFU, DEPTOR / Fold change vs veh, DEPTOR / RFU, CPM / Fold change vs veh, CPM / RFU, DNAJB6 / Fold change vs veh, DNAJB6 / RFU, CACNA2D3 / Fold change vs veh, CACNA2D3 / RFU, DTX4 / Fold change vs veh, DTX4 / RFU, TFCP2 / Fold change vs veh, TFCP2 / RFU, GMCL1 /// GMCL1P1 / Fold change vs veh, GMCL1 /// GMCL1P1 / RFU, AEBP2 / Fold change vs veh, AEBP2 / RFU, SNHG1 /// SNORD22 /// SNORD25 /// SNORD26 /// SNORD27 /// SNORD28 /// SNORD29 /// SNORD31 / Fold change vs veh, SNHG1 /// SNORD22 /// SNORD25 /// SNORD26 /// SNORD27 /// SNORD28 /// SNORD29 /// SNORD31 / Fold change (Aza/veh), C12orf56 (ProbeSet 11735607_a_at) / Fold change (ACY-1035/veh), C12orf56 (ProbeSet 11735607_a_at) / Fold change (Aza/veh), FGFR1OP (ProbeSet 11751329_s_at) / Fold change (ACY-1035/veh), FGFR1OP (ProbeSet 11751329_s_at) / Fold change (Aza/veh), VPS36 (ProbeSet 11739960_a_at) / Fold change (ACY-1035/veh), VPS36 (ProbeSet 11739960_a_at) / RFU SYPL1 (11715823_x_at) / Fold change /veh SYPL1 (11715823_x_at) / RFU IGFBP7 (11715501_s_at) / Fold change /veh IGFBP7 (11715501_s_at) / RFU REEP3 (11722064_at) / Fold change /veh REEP3 (11722064_at) / RFU IGLL1 (11728026_x_at) / Fold change /veh IGLL1 (11728026_x_at): dose or concentration left out as unconfirmed. As to conditions: ProbeSet 11749477_a_at; LIST B.

For the compound `Nc1ncn([C@@H]2O[C@H](CO)[C@@H](O)[C@H]2O)c(=O)n1` [azacitidine], the “Fold change vs veh, EDEM3” value is 0.89.
